Measured values taken from a melting point compilation (Tetko et al.).

melting point [°C] | SMILES
66 | COC(=O)C1=C(C)c2ccccc2C1
99 | Cn1c(-c2ccccc2)cc2ccccc21
153 | CC(C)(C)C1=CC(=O)C(C(C)(C)C)=CC1=O
139 | CC1(C)CC(=O)C2=C(C1)Nc1c(ccc3ccccc13)C2c1ccc(Cl)cc1 (stereo not drawn)
180 | CNCCC(Oc1ccc(C(F)(F)F)cc1)c1ccccc1 (stereo not drawn)
22 to 24 | O=C(c1ccc(F)cc1)c1ccccc1F
-42.6 | CCCCCCCCOC(=O)CC
129 | CCCCOc1ccc(N=Nc2ccc(N)nc2N)cn1
49 to 52 | O=C(O)CSCCOc1ccccc1
40.5 | O=C1CCCCCCC1
49 to 50 | CN(C)S(C)(=O)=O
43 to 44 | Nc1cccc(-n2cccc2)c1
60 | CCCCC(=O)NN
80 to 88 | N#CCCN(CCC#N)c1ccccc1
72 | CCCCCCCCCCCCCCCC(=O)OCCOC(=O)CCCCCCCCCCCCCCC
-80 | CC(C)OC=O
72 | CC(O)c1cc(C(F)(F)F)cc(C(F)(F)F)c1 (stereo not drawn)
31 | O=NN(CCCl)C(=O)NCCCl
136 | CC(C)(C)c1cnc(C(=O)Nc2cc(C(F)(F)F)cc(C(F)(F)F)c2)cn1
244 | CC(=O)N(Nc1ccccc1)c1ccc(-c2ccc(/N=N/c3ccccc3)cc2)cc1
156 | O=C(C1=NOC2C(=O)N(c3ccc(F)cc3)C(=O)C12)c1ccccc1 (stereo not drawn)
143 | OC1CCC(O)CC1 (stereo not drawn)
204 | CC1(C)CC(=O)C(=NNc2ccc(Br)cc2)C(=O)C1

melting point [°C] | SMILES
228 to 234 | Nc1c(C=O)ccc2c1C(=O)c1ccccc1C2=O
111 to 113 | COc1ccc(N=C(S)SC)cc1
150 | N#CC(=CNc1ccc(O)cc1)c1ccccc1
70 to 73 | CC(=O)c1cc(Cl)c(C)cc1O
75 | CC(=O)CCc1oc2ccc(Cl)cc2c1-c1ccc(C)o1
136 | CC(=O)Oc1ccc(C(=C2CCCCC2)c2ccc(OC(C)=O)cc2)cc1
241 to 244 | NNc1nc(-c2ccccc2)c2c(N)n[nH]c2n1
164 | O=C(O)c1ccc(Oc2ccccc2)nc1
75 to 75.5 | COc1ccc2c(c1)CCC(=Cc1ccccc1)C2=O
-85 | C=CCOC(=O)CC(C)=O
17 to 20 | O=C(Cl)c1ccccc1[N+](=O)[O-]
108 to 109 | CC1(C)OC[C@H](CC(N)=O)O1
86 to 91 | CCOC(=O)CC(=O)c1cc(OC)c(OC)c(OC)c1
-7.85 | CCCCCNCCCCC
270 | N#C/C(=N\Nc1ccccc1[N+](=O)[O-])c1nc2ccccc2[nH]1
42 | S=C=Nc1ccc(Oc2ccccc2)cc1
47 to 50 | C[Si](C)(C)OS(=O)(=O)O[Si](C)(C)C
45 | OCCOc1cccc2ccccc12
178 to 180 | S=C1NCCCCN1
206 | CN=C(NC)c1cc(C(C)(C)C)c(O)c(C(C)(C)C)c1
232 | c1ccc2c(c1)-c1cc3ccccc3c3cc4ccccc4c-2c13
284 | CC1(C)CCC2(C)CC=C3C(C)(CCC4C3(C)CCC3C(C)(C)C(O)CCC43C)C2C1 (stereo not drawn)
124 to 125 | COC(=O)c1ccc(OC)c(C#N)c1

melting point [°C] | SMILES
160 | Cc1ccc(S(=O)(=O)NCCNS(=O)(=O)c2ccc(C)cc2)cc1
86 to 89 | O=Cc1c(Cl)ccc(Cl)c1Cl
107 | O=C(Cl)c1cc(C(=O)Cl)c([N+](=O)[O-])cc1[N+](=O)[O-]
196 | Oc1cc(OCc2ccccc2)ccn1
31 | Nc1c(Cl)cc(C(F)(F)F)cc1Br
96.5 | C[Si](C)(C)C1c2ccccc2-c2ccccc21
141 | COc1c(C)c2c(c(O)c1CC=C(C)CCC(=O)O)C(=O)OC2
173 | CC(=O)CCc1cc2c(cc1[N+](=O)[O-])CCC(C)N2C(=O)c1ccc([N+](=O)[O-])cc1 (stereo not drawn)
208 | COC(=O)C1=C(C)NC(=O)NC1c1cccc(OC)c1O (stereo not drawn)
172 | CCOC(=O)C(C#N)=C1CC(SC)=C(C(=O)OCC)C(=N)N1c1ccc(OC)cc1
34 | CCC1C(=O)OCC1Cc1cncn1C (stereo not drawn)
9.5 | Cc1nc2ccccc2o1
138 | COC1=C(C(C)C)C(=O)C2=C(C1=O)C1(C)CCCC(C)(C)C1CC2O (stereo not drawn)
155 | NS(=O)(=O)c1cccc(/C(=N\O)c2ccccc2)c1
74.5 | CCCCC(=O)c1ccc(N)cc1
82 | CC(C)(C)NCC(O)COc1cc(Cl)ccc1Cl (stereo not drawn)
70 | COc1ccc(C2(C)C=C(C)N=N2)cc1 (stereo not drawn)
79 | O=C1C2=C(O)CCCC2Cc2ccccc21 (stereo not drawn)
122 to 123 | O=C(Cl)c1ccc(-c2nccs2)cc1
224 | Cc1nc2cc([N+](=O)[O-])ccc2[nH]1
225 to 228 | CC(C)S(=O)(=O)c1cnc(-c2cccnc2)nc1N
107 | Nc1c(Cl)c(Cl)cc(Cl)c1Cl
123 | ON(Cc1ccccc1)Cc1ccccc1

melting point [°C] | SMILES
51 | O=C(OCCC(OC(=O)c1ccccc1)c1ccccc1)c1ccccc1 (stereo not drawn)
280 | Oc1ccnc2cc(Cl)ccc12
197 to 199 | CN(C)c1ccc(C2Nn3c(nnc3-c3cccc([N+](=O)[O-])c3)S2)cc1 (stereo not drawn)
59 to 60 | CCOC(=O)c1cc2cccnc2s1
109 | CCOc1ccc(-c2nnc3n2NC(c2ccc(Cl)cc2)S3)cc1 (stereo not drawn)
63 to 65 | O=[N+]([O-])c1cccnc1Oc1ccc(F)cc1F
64 to 65 | CCOC(=O)Nc1ccc(C)cc1[N+](=O)[O-]
169 to 174 | Cc1ccc2occ(C=O)c(=O)c2c1
239 | Cc1nc2ccccc2nc1-c1cc(-c2nc3ccccc3nc2C)c([N+](=O)[O-])cc1[N+](=O)[O-]
148 | O=C(O)CCC(=O)Nc1ccccc1
90 to 92 | Cc1c(C(=O)Cl)cnn1-c1ccc(F)cc1
176 | CC(=O)Nc1ccc(C)c(NS(=O)(=O)C(F)(F)F)c1
112 | O=C(O)COc1ccc(CO)cc1
208 | COc1cc(O)c2c(=O)c(O)c(-c3ccc(OCc4ccccc4)c(O)c3)oc2c1
114 | CCN(CC)CCOC(=O)C(c1ccccc1)c1ccccc1
74 to 75 | COC(=O)c1sc(C(F)(F)F)c(-c2ccccc2)c1S(=O)(=O)Cl
103 | Cc1cc2c(c(C)c1C)C(=O)C2
69 to 73 | Cc1cc(Cl)ncc1N
32 | CCCCCCCCCCC(Br)C(=O)O (stereo not drawn)
-89 | CC1CCC(C)S1 (stereo not drawn)
138 to 139 | CC(C)(C)OC(=O)N1CCN(CCC(=O)O)CC1
84.5 | CN(C)C(=O)CCC(=O)O
-10 | COC(=O)CC(=O)OC(C)(C)C

melting point [°C] | SMILES
16.5 | C[Si](C)(C)N(c1ccccc1)[Si](C)(C)C
52 | CC(Cc1ccccc1)c1ccccc1 (stereo not drawn)
146 to 149 | CCCCCn1c(O)nnc1S
66 to 67 | NC(Cc1ccccc1)=NO
-28 | CCCCOC(=O)C(C)O (stereo not drawn)
119 to 122 | CCOC(=O)c1sc(SC)c2c1CCCC2O (stereo not drawn)
280 | O=C1OC2(c3cc(Cl)c(O)cc3Oc3cc(O)c(Cl)cc32)c2ccccc21
195 | O=C(O)c1cc2cc(Br)ccc2oc1=O
228 | N#Cc1cnc2[nH]ccc2c1
-70 | NCC1CCCC(CN)C1 (stereo not drawn)
270 | O=C(c1cc(O)c(O)c(O)c1)c1ccc(O)c(O)c1O
-80 | FC(Br)C(F)(F)F (stereo not drawn)
39 | N#Cc1ccc(C(F)(F)F)nc1
201 to 202 | CN(N)c1c(N(C)N)c(=O)c1=O
147 to 149 | CC(C)(C)P(c1ccc2ccccc2c1-c1cccc2ccccc12)C(C)(C)C
156 | CC(=O)Nc1ccc(Br)cc1F
90 | O=C(O)CCc1ccc(F)cc1
42 to 45 | CCNCCS(=O)(=O)c1ccc(C)cc1
206 | CC1(C)CC(=O)C(=NNc2ccc(O)cc2)C(=O)C1
172 | CCCCOc1ccc(NC(=O)C(C(F)(F)F)C(F)(F)F)cc1

SMILES | melting point [°C]
O=C(CCCN1CCC2(CC1)C(=O)NCN2c1ccccc1)c1ccc(F)cc1 | 190
C[C@]12CC[C@H]3[C@@H](CCC4CC(=O)CC[C@@]43C)C1=CCC2=O (stereo partly drawn) | 151
C[C@@]12CC[C@@H]3[C@H](CC[C@]4(C)C(=O)CC[C@]34C)[C@@]1(C)CCC(=O)C2 | 184 to 186
COC(=O)Nc1cccc(OC(=O)Nc2cccc(C)c2)c1 | 143
COc1ccc(CCl)cc1 | 24.5
CC=C(CC)C(=O)NC(N)=O | 198
CCC1CN2CCC1CC2C(O)c1ccnc2ccc(OC)cc12 (stereo not drawn) | 172
C#CC1(O)CCC2(C)C3CCC4(C)C(=O)CCC4C3CCC2(C)C1 (stereo not drawn) | 238
O=[N+]([O-])c1ncc[nH]1 | 287
CC(C)CC=CC(C(=O)O)C1=CCC2(C)C(CCC3C4CCC(O)C4(C)CCC32)C1 (stereo not drawn) | 200
CCOC(=O)C(C)OC(=O)c1cc(Oc2ccc(C(F)(F)F)cc2Cl)ccc1[N+](=O)[O-] (stereo not drawn) | 45
CN1CCN(c2ccccc2C=O)CC1 | 44 to 48
CC(=NO)C(=O)c1ccccc1 | 114
CCCCCCCCCCF | -35
c1cncc(-c2ccnc(-c3cccnc3)c2)c1 | 148
Cc1cc([N+](=O)[O-])c(N)c([N+](=O)[O-])c1 | 172
